Marks after values point to notes of the source that are not given here.
Columns and labels:
[1] = system: P. berghei ANKA sporozoites; experiment: Liver-stage infection in mice by mosquito bites, treatment and survival; type: in vivo
Description: [1] Liver-stage infection in mice, treatment and survival assay: GFP-expressing P. berghei ANKA were grown in Anopheles stephensi mosquitoes in the insectary at National Institute of Immunology (New Delhi, India). Sporozoite count per salivary gland and infectivity was determined before the experimental infection of mice by the mosquito bites. Briefly, anaesthetized mice were exposed to a cage of sporozoite carrying starved mosquitoes (100 mosquito/5 mouse) for 15 minutes with intermittent disturbing of mosquito every 2-3 minute in order to encourage biting and injection of more sporozoite. Biting was done at 22+1° C. and dark condition maintained in an incubator. First dose (10 mg/Kg) was given 24 hours before the infection, second dose was given two hours post sporozoite challenge (biting) drug was given intraperitonially (I.P). Remaining dosages were given 24 h post challenge.
[2] For calculating parasite load, liver of experimental mice were isolated 50 h post infection. Mice were anesthetized, abdominal area sterilized with 70% ethanol and liver dissected out. Liver was homogenized in precold denaturating solution. RNAs were isolated from the homogenized sample followed by Real Time polymerase chain reaction (PCR).
Prompted by the notable in vitro liver stage activity, mice were infected with sporozoites through mosquito bites to test the efficacy of Compound I on liver stage infection in mouse models. The infected mice were treated with fixed dose of 10 mg/kg for three days. Liver stage P. berghei parasites mature into merozoites in about 55 hours. […] To understand the pre-patient period and delay, the starting of blood stage parasite infection was monitored after three days post challenge by observing Giemsa stained smears. […] Single day delay in blood stage infection corresponds to about 10-fold decrease in liver parasite burden. Experimental mice were kept for survival studies after treatment with Compound 1 (10 mg/kg) and death day was noted.
The percentage of parasitemia remained low until day 7 post-sporozoite challenges.

[2] = system: Plasmodium berghei NK-65 (chloroquine-resistant); experiment: In vivo blood stage mouse model, modified Peters four-day suppressive test
Description: Specifically, a murine model of malaria was developed wherein thirty healthy Swiss albino mice were inoculated intraperitoneally with 1×10^7 Plasmodium berghei NK-65 (chloroquine-resistant) infected red blood cells (RBCs) suspended in RPMI 1640 medium (commercially available from Thermo Fisher Scientific Inc.; 200 μL). A first set of the infected mice was treated each day with a single dose of 50 mg/kg of Compound I, and a second set was not treated. The survival of the mice was monitored to day 30 post-infection using a Kaplan-Meier survival analysis, and the statistical difference in animal survival was analyzed by a log rank test. Representative data for the percent parasitemia for untreated mice (control) and mice treated with Compound I are shown in Table 4 and FIG. 2A and FIG. 2B.
Activity of Compound I (Calxinin) was tested using a slightly modified version of Peter's 4-day suppressive test: initial infection of mice with P. berghei parasites, followed one dose 50 mg/kg of drug treatment, followed by monitoring of parasitemia as well as external signs of disease progression for up to 10 days.
10^7 Plasmodium berghei NK-65 (CQ-resistant) were administered by i.p into Swiss albino mice (6 mice/group). Infected mice were either treated with Compound I (Calxinin) or injected with DMSO alone (untreated vehicle control). […] The survival of the mice was followed up to day 30 post-infection using Kaplan-Meier survival analysis (FIG. 6B). Animal survival was analyzed by a log rank test.

[3] = system: sexual erythrocytic stages of PfDd2 cultures; experiment: Anti-gametocyte activity, stage I and II gametocytes; type: cell-based, Plasmodium falciparum
Description: The effect of Compound I was tested on the development of sexual erythrocytic stages of PfDd2 cultures. Stage I and II gametocytes, were incubated for forty-eight hours with drug concentration considering the IC50 values of compounds at asexual stage assay.

[4] = system: human T-type calcium channel; experiment: Whole cell patch clamp in HEK 293 cells; type: cell-based; conditions: increasing concentrations up to 1 microMolar
Description: These currents were measured with the Patch clamp method in the “whole cell” configuration. In this configuration, the total currents that pass through all the calcium channels present in the plasma membrane are measured. In this case, it is measured in HEK cells, which constitutively express the human T type Calcium channel. In this case, the internal solutions contain the Cs+ instead of K+, thus blocking the K+ channels and the external one contains TEA an external channel blocker of K. This way the only currents that can develop in these cells are that of T type Calcium channels. This calcium channel is a voltage dependent channel, which is characterized by activating at membrane potentials that are more negative than L-type channels and by rapidly inactivating. […] This is the characteristic of the human T type calcium channel.
Human T-type calcium channel currents were measured with the Patch clamp on the “whole cell” configuration in HEK cells constitutively expressing human T type Calcium channel.

[5] = In vitro cytotoxicity, PBMC (MTT, Cell Titer Glo); type: cell-based, human; conditions: human; PBMCs; read-out: CC50 (50% cell toxicity)
Description: (§1) [6] PBMC were isolated from healthy donors using the Ficoll-Paque™ technique (GE Healthcare Bioscience AB, Uppsala, Sweden) from donor leukopack samples obtained from LUMC blood bank services. […] Robust cells at a concentration of 80,000 cells/ml were plated into 96-well plates and incubated for 24 hours. Cell viability and proliferation was determined by use of both MTT and Cell Titer Glo@ assays for both cell types. MTT assay was conducted by addition of 10 μL MTT solution (5 mg/mL) into each well, incubated for 4 hour at 37° C. followed by addition of 50 μL DMSO to dissolve the formazan precipitate according to the manufacturer's protocol. Aliquots were drawn from each well and color intensity was measured spectrophotometrically in SpectraMax® M5 Multi-Mode Microplate Reader.
(§2) The cytotoxicity of Compound I was tested by exposing peripheral blood mononuclear cells (PBMCs) to drug concentrations corresponding to averages of both Pf3D7 and PfDd2 IC50 values. This was intended to establish whether the observed antiparasitic effects of the compounds were due to non-specific inhibitory activity. […] The IC50 required for killing the parasite is <90 nM. Therefore, in order to be toxic for human cells we have to use over 650 fold concentration.

[6] = system: peripheral blood mononuclear cells (PBMCs); experiment: In vitro cytotoxicity, PBMC (MTT, Cell Titer Glo); type: cell-based, human
Description: as §1, §2

primary and human cells = experiment: Cell cytotoxicity assays in primary and human cells (summary statements); type: cell-based
Description: In addition, the cell viability of Huh 7 and HEK293 cells was evaluated post drug exposure using the Alamar Blue assay [Riss, Terry L., et al. “Cell viability assays.” Assay Guidance Manual [Intenet]. […] Cells (1×10/well) were exposed to varying concentrations of test compounds, for 24 hours in 96-well plate format along with 10/100 μL Alamar Blue solution (10×=4.8 mM in phosphate buffer) per well.

NC(Cc1ccccc1)C(O)CN1CCN(Cc2ccc(C(F)(F)F)cc2)CC1 (stereo not drawn) [Compound I]
Mean survival time (MST) ([1]; 10 mg/kg): about 9 days
decrease in liver parasite burden corresponding to the delay ([1]; 10 mg/kg): about 10 fold
delay in the prepatent period ([1]; 10 mg/kg): One day's delay
inhibition of liver stage infection in mice ([1]; 10 mg/kg for three days, I.P): 30%
activity against mixed blood stages ([2]; 50 mg/kg/day (single dose), NK64 strain): significant activity
Percent Parasitemia Day 3 ([2]; Table 4, 50 mg/kg each day): 0.21 ** (P < 0.001)
Percent Parasitemia Day 7 ([2]; Table 4, 50 mg/kg each day): 2.45 * (P < 0.03)
Percent Parasitemia Day 10 ([2]; Table 4, 50 mg/kg each day): 12.3 * (P < 0.01)
% Parasitemia Day 3 ([2]; Table 5, one dose 50 mg/kg): 0.21 ** (P < 0.001) %
% Parasitemia Day 7 ([2]; Table 5, one dose 50 mg/kg): 2.45 * (P < 0.03) %
% Parasitemia Day 10 ([2]; Table 5, one dose 50 mg/kg): 12.3 * (P < 0.01) %
reduction in parasite load ([2]; single dose 10 mg/kg, P. berghei NK64, mixed blood stage parasites): 30%
maturation of stage III to V gametocytes (PfDd2) ([3]; 48 hours at asexual stage IC50, vs DMSO control): 41.0
gametocyte morphology ([3]; 48 hours, vs DMSO control): morphologically distorted gametocytes
decreased proportion of stage III to V gametocytes ([3]; 48 hrs at 88 nM): up to 59%
activity of the Calcium T Channel (current amplitude, voltage dependence of activation) [4]: No difference
CC50 at 24 h [5]: 1000 µM
% PBMC viability relative to vehicle control ([6]; 24 hours): > 100%
proliferation of the PBMCs (PBMC) ([6]; concentration = average of Pf3D7 and PfDd2 IC50, Cell Titer-GLO): 110.12
toxicity to HEK293, Huh 7.1, HepG2 and PBMCs (primary and human cells): did not show any toxicity
concentration up to which no toxicity was seen (primary and human cells; primary and human cells): > 30 µM
